{"source": "patent US8227203B2", "about": "“Method for testing or screening protein synthesis inhibitors” (The Trustees of the University of Pennsylvania, priority 2007, dated 2012)", "key": {"[1]": {"system": "HeLa PV cells", "experiment": "SMN sub-cellular localization by indirect immunofluorescence (anti-SMN 2B1)", "assay_type": "cell-based", "conditions": "for redistribution of SMN from the cytoplasm to the nucleus (nuclear accumulation of SMN): HeLa cells, short treatment (2-6 hours), immunofluorescence; for nuclear translocation of SMN at longer times: longer times (>24 hr), FIG. 5a; for completeness of SMN nuclear accumulation compared with CHX: ER stress inducers, FIG. 6B", "procedure": "(§1) HeLa PV were cultured in Dulbecco's modified Eagle's medium (Invitrogen) supplemented with 10% fetal bovine serum (Invitrogen). For screening, cells were seeded onto 384-well plates or, for specific experiments, on glass coverslips the day before treatment. Compounds were added directly into the culture medium to the indicated concentration and the cells were then maintained at 37° C. in a 5% CO2 humidified atmosphere for the duration of the treatment. Dispensing of compounds and other automatic liquid handling steps were performed with a Beckman FX multi-channel system equipped with Hudson Crane robotic systems.\n(§2) The following mouse monoclonal antibodies were used for indirect immunofluorescence: 2B1 (anti-SMN), 2E17 (anti-Gemin2), 12H12 (anti-Gemin3), 10G11 (anti-Gemin5), 6E2 (anti-Gemin7), 10E10 (anti-PABP), 6BG10 (anti-FXR1), Y12 (anti-Sm) and 9H10 (anti-hnRNP A1). An affinity-purified rabbit polyclonal antibody was used to detect Gemin6.\n(§3) Indirect immunofluorescence on HeLa PV cells was performed as follows: HeLa cells, plated on glass coverslips, were briefly washed with PBS, fixed in 2% formaldehyde/PBS for 20 minutes at room temperature, permeabilized in 0.5% Triton X-100/PBS for 5 min at room temperature. Cells were blocked in 3% bovine serum albumin for 1 hour at room temperature. Double-label immunofluorescence experiments were performed by separate sequential incubations of each primary antibody, diluted in PBS containing 3% bovine serum albumin, followed by the specific secondary coupled to fluorescein isothiocyanate or TXRD. All incubations were at room temperature for 1 hour. Indirect epifluorescence microscopy was performed with a Nikon Eclipse E800 microscope. Digital images were collected with a Cook Sensicam high performance camera and processed with the IP laboratory software. Processing of samples for immunofluorescence microscopy on cells cultured in 384-well plates was automated and performed with the aid of microplate washers (ELX405, Bio-Tek) in a similar manner to that previously used for individual samples on glass slides. The cells were also stained with DAPI to allow definition of the nucleus in each cell. Digital images were acquired with an automated microscopy and analysis system (IN Cell Analyzer 1000, GE Healthcare). Images were analyzed using automated algorithms with parameters set to calculate mean pixel intensity in each nucleus (defined by DAPI staining and acquired in a separate channel), cytoplasm, and total cell, as well as the relevant calculated ratios of these values.\nBased on the results obtained in Example 1, a library of ˜5,000 biologically active small molecules was screened on HeLa cells in 384-well plates. Each well was incubated with a different compound (at 10 μM) and the cells were processed for indirect immunofluorescence. Digital images were collected from six fields in each well and analyzed using imaging algorithms for multiple parameters including relative nuclear and cytoplasmic intensities, and number, size and signal intensity of Gems. DAPI-stained images were collected in a separate channel to define the boundary of each nucleus. Images of individual fields in wells were flagged by the software as showing a significant change in SMN sub-cellular localization. These individual wells were examined directly, and active compounds were re-tested for verification (FIG. 2)."}, "[2]": {"system": "HeLa cells", "experiment": "Cell viability / toxicity of treated cells", "conditions": "overnight treatment with 10 μM CHX"}, "[3]": {"system": "HeLa cells", "experiment": "Localization of other nuclear and cytoplasmic proteins (hnRNP A1, PABP, FXR1, snRNPs) by immunostaining", "assay_type": "cell-based", "conditions": "6 hrs of 10 μM CHX (FIG. 3c)", "procedure": "as §2\nIndirect immunofluorescence on HeLa PV cells was performed as follows: HeLa cells, plated on glass coverslips, were briefly washed with PBS, fixed in 2% formaldehyde/PBS for 20 minutes at room temperature, permeabilized in 0.5% Triton X-100/PBS for 5 min at room temperature. Cells were blocked in 3% bovine serum albumin for 1 hour at room temperature. Double-label immunofluorescence experiments were performed by separate sequential incubations of each primary antibody, diluted in PBS containing 3% bovine serum albumin, followed by the specific secondary coupled to fluorescein isothiocyanate or TXRD. All incubations were at room temperature for 1 hour. Indirect epifluorescence microscopy was performed with a Nikon Eclipse E800 microscope. […] Images were analyzed using automated algorithms with parameters set to calculate mean pixel intensity in each nucleus (defined by DAPI staining and acquired in a separate channel), cytoplasm, and total cell, as well as the relevant calculated ratios of these values."}, "[4]": {"system": "Hela cells with reduced SMN by RNAi", "experiment": "SMN localization in HeLa cells with reduced SMN by RNAi (shRNA targeting SMN)", "assay_type": "cell-based", "conditions": "vs cells expressing non-targeting shRNA; 10 μM CHX 6 hours (FIG. 7)", "procedure": "as §3, with “The cells were also stained with DAPI to allow definition of the nucleus in each cell. Digital images were acquired with an automated microscopy and analysis system (IN Cell Analyzer 1000, GE Healthcare).” left out"}, "[5]": {"system": "HeLa cells", "experiment": "Sub-cellular localization of Gemins by immunostaining", "assay_type": "cell-based", "procedure": "as §1, with “systems. […]” for “systems.”\nIndirect immunofluorescence on HeLa PV cells was performed as follows: HeLa cells, plated on glass coverslips, were briefly washed with PBS, fixed in 2% formaldehyde/PBS for 20 minutes at room temperature, permeabilized in 0.5% Triton X-100/PBS for 5 min at room temperature. […] Images were analyzed using automated algorithms with parameters set to calculate mean pixel intensity in each nucleus (defined by DAPI staining and acquired in a separate channel), cytoplasm, and total cell, as well as the relevant calculated ratios of these values. […]"}}}
{"molecule": "CC[C@H]1CN2CCc3cc(OC)c(OC)cc3[C@@H]2C[C@@H]1C[C@H]1NCCc2cc(OC)c(OC)cc21", "note": "[emetine]", "values": [{"measurement": "SMN localization (FIG. 6b)", "setting": "[1]; 10 μM", "value": "nuclear accumulation"}, {"measurement": "redistribution of SMN from the cytoplasm to the nucleus (nuclear accumulation of SMN)", "setting": "[1]", "value": "showed the same effect as cycloheximide"}]}
{"molecule": "C[C@@H]1C[C@@H]([C@H](O)CC2CC(=O)NC(=O)C2)C(=O)[C@@H](C)C1", "note": "[cycloheximide]", "values": [{"measurement": "cell viability", "setting": "[2]", "value": "no reduction in cell viability"}, {"measurement": "localization of hnRNP A1, PABP, FXR1 and snRNPs", "setting": "[3]", "value": "not significantly affected"}, {"measurement": "relation of nuclear accumulation of SMN to inhibition of protein synthesis", "setting": "[1]", "value": "proportional to the extent of inhibition of protein synthesis"}, {"measurement": "concentration dependence of SMN redistribution from the cytoplasm to the nucleus", "setting": "[1]; 0.1-40 μM (FIG. 3a, b)", "value": "concentration-dependent"}, {"measurement": "treatment time after which the effect on SMN redistribution was evident", "setting": "[1]; HeLa PV cells, 10 μM CHX (FIG. 3a)", "value": 2, "unit": "h"}, {"measurement": "redistribution of SMN from the cytoplasm to the nucleus (nuclear accumulation of SMN)", "setting": "[1]", "value": "most striking accumulation of SMN in the nucleus"}, {"measurement": "SMN remaining in the cytoplasm", "setting": "[1]; after 8 or more hours of treatment", "value": "little SMN detected in the cytoplasm"}, {"measurement": "reversibility of SMN nuclear accumulation", "setting": "[1]; cells washed and placed in fresh medium devoid of cycloheximide", "value": "reversible"}, {"measurement": "SMN localization after overnight treatment", "setting": "[1]; overnight treatment with 10 μM CHX", "value": "all of the SMN was localized to the nucleus"}, {"measurement": "SMN nuclear accumulation in cells with reduced SMN", "setting": "[4]", "value": "showed a similar effect"}, {"measurement": "nuclear accumulation of SMN complex components (Gemins)", "setting": "[5]; 6 hours 10 μM CHX (FIG. 4)", "value": "causes most of the components of the SMN complex to accumulate in the nucleus"}]}
{"molecule": "O=C(CCCCCN1C(=O)c2cccc3cccc(c23)C1=O)NO", "note": "[scriptaid]", "values": [{"measurement": "nuclear translocation of SMN at longer times", "setting": "[1]", "value": "caused the same effect as protein synthesis inhibitors"}]}
{"molecule": "CCOC(=O)CN1C(=O)CC(C[C@@H](O)[C@@H]2C[C@@H](C)C[C@H](C)C2=O)CC1=O", "note": "[cycloheximide-N-ethylethanoate]", "values": [{"measurement": "redistribution of SMN from the cytoplasm to the nucleus (nuclear accumulation of SMN)", "setting": "[1]", "value": "did not show any effect"}]}
{"molecule": "C/C=C(/C)C(=O)O[C@H]1C(C)=C2[C@H]([C@@H]1OC(=O)CCCCCCC)[C@@](C)(OC(C)=O)C[C@H](OC(=O)CCC)[C@@]1(O)[C@H]2OC(=O)[C@@]1(C)O", "note": "[thapsigargin]", "values": [{"measurement": "SMN localization (FIG. 6b)", "setting": "[1]; 10 μM", "value": "nuclear accumulation"}, {"measurement": "completeness of SMN nuclear accumulation compared with CHX", "setting": "[1]", "value": "not as complete as that seen after treatment with high levels of CHX"}, {"measurement": "redistribution of SMN from the cytoplasm to the nucleus (nuclear accumulation of SMN)", "setting": "[1]", "value": "caused SMN to accumulate in the nucleus"}]}
{"molecule": "CCCC(CCC)C(=O)O", "note": "[valproic acid]", "values": [{"measurement": "concentration dependence of nuclear localization of SMN", "setting": "[1]; 2-10 mM VPA (FIG. 5b)", "value": "clear concentration dependence effect"}, {"measurement": "nuclear translocation of SMN at longer times", "setting": "[1]", "value": "caused the same effect as protein synthesis inhibitors"}, {"measurement": "localization of Gemin3 and Gemin5", "setting": "[5]; 24 hour treatment, 10 mM VPA (FIG. 5c)", "value": "remain predominantly cytoplasmic"}]}
{"molecule": "tunicamycin", "values": [{"measurement": "SMN localization (FIG. 6b)", "setting": "[1]; 10 μg/ml", "value": "nuclear accumulation"}, {"measurement": "completeness of SMN nuclear accumulation compared with CHX", "setting": "[1]", "value": "not as complete as that seen after treatment with high levels of CHX"}, {"measurement": "redistribution of SMN from the cytoplasm to the nucleus (nuclear accumulation of SMN)", "setting": "[1]", "value": "caused SMN to accumulate in the nucleus"}]}
{"molecule": "COc1ccc(C[C@H](N)C(=O)N[C@H]2[C@@H](O)[C@H](n3cnc4c(N(C)C)ncnc43)O[C@@H]2CO)cc1", "note": "[puromycin]", "values": [{"measurement": "SMN localization (FIG. 6b)", "setting": "[1]; 10 μM", "value": "nuclear accumulation"}, {"measurement": "redistribution of SMN from the cytoplasm to the nucleus (nuclear accumulation of SMN)", "setting": "[1]", "value": "showed the same effect as cycloheximide"}]}
{"molecule": "CC(/C=C/C(=O)NO)=C\\[C@@H](C)C(=O)c1ccc(N(C)C)cc1", "note": "[trichostatin A]", "values": [{"measurement": "nuclear translocation of SMN at longer times", "setting": "[1]", "value": "caused the same effect as protein synthesis inhibitors"}]}
